Data: patent US8101760B2, “Glucocorticoid receptor modulator and methods of use” (Eli Lilly and Company, priority 2007, dated 2012)
Where two headings read alike, the source gives them in different places.

Legend:
[1] = test system: carrageenan-induced paw edema; test: Carrageenan-induced paw edema (CPE) model; type: in vivo, rat; settings: rat; for ED50: oral gavage 2 h before carrageenan, 3 h after injection, mean of 5
From the text: Carrageenans are a group of polysaccharides which can induce an acute inflammatory response in animals. Cardinal signs of inflammation including edema, hyperalgesia and erythema are developed in the injection site immediately following injection. The CPE model (Winter et al., Proc. Soc. Exp. Biol. Med. 111, 544-547, 1962) is a recognized model of inflammation and can be used to evaluate the antinflammatory effects of glucocorticoid receptor ligands.
To evaluate the anti-inflammatory effects of Compound (I), the Compound (I) is formulated in a vehicle comprising 0.5% carboxymethyl cellulose and 0.25% Tween 80 then administered orally via gavage to male Sprague-Dawley rats (180-200 g) (Harlan Industries, Indianapolis, Ind.). For comparison, prednisolone is administered orally in the same vehicle. Two hours later, 1% carrageenan in 50 μL of 0.9% pyrogen free saline is injected into the subplantar regions of the right hind paw. Rats are euthanized by CO2 at 3 hours after the carrageenan injection. Paws are removed then weighed using a microbalance. Paws are then immediately immersed into liquid nitrogen until frozen. Frozen paws are dissected by making several cuts on the paw surface then centrifuged to extract the exudates. Exudate levels of IL-1β, a cytokine generated during the inflammatory response, is then measured by ELISA (R&D Systems, Inc., Catalog No. RLB00) using standard techniques. Total paw protein is also measured using a protein assay kit (Pierce Biotechnology, Inc., Rockford, Ill., U.S.A., Catalog No. 1856210) and the absolute level of IL-1β is normalized to yield a concentration value of ng IL-1β/mg total protein.

[2] = test system: human hepatocyte cultures; test: Metabolism in human hepatocyte cultures in vitro; type: in vitro ADME
[3] = biological target: T1, human glucocorticoid receptor (GR) (Homo sapiens, UniProt P04150); test: Nuclear hormone receptor functional modulation assay (GRE-luciferase, HEK293), GR; type: cell-based
T1 construct: expressed in transfected cells; host or cells: HEK293, transient transfection (Fugene), CMV promoter plasmid
T1 sequence (P04150 1-777): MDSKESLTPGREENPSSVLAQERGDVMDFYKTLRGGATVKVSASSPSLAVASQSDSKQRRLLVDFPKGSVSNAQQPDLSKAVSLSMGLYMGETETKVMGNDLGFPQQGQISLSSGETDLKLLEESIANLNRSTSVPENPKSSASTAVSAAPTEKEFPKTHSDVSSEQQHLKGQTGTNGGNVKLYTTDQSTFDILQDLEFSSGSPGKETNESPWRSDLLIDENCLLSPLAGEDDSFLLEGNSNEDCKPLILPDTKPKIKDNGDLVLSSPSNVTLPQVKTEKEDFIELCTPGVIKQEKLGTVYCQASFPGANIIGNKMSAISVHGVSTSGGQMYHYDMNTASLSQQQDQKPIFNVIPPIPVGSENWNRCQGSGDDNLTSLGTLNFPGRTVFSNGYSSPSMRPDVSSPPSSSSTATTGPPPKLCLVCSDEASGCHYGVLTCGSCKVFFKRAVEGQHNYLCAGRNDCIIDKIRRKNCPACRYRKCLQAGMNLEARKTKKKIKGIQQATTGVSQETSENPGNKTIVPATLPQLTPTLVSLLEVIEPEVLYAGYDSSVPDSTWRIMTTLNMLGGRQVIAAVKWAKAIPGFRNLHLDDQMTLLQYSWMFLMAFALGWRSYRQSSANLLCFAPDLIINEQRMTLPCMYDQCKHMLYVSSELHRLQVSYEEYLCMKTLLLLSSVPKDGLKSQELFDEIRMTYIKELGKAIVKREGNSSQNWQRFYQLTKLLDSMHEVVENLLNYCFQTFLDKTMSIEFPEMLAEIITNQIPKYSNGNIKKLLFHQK
From the text: The solvents, reagents, and ligands employed in the functional assay are readily available from commercial sources, or can be prepared by one of ordinary skill in the art.
Human embryonic kidney HEK293 cells are transfected with steroid hormone receptor and reporter gene plasmids using Fugene™ (Roche Diganostics) transfection reagent. Briefly, the reporter plasmid containing two copies of probasin ARE (androgen response element 5′GGTTCTTGGAGTACT3′ (SEQ ID NO:1)) and TK(thymidine kinase) promoter upstream of the luciferase reporter cDNA, is transfected into HEK293 cells with a plasmid constitutively expressing human androgen receptor (AR) using viral CMV(cytomegalovirus) promoter. The reporter plasmid containing two copies of GRE (glucocorticoid response element 5′TGTACAGGATGTTCT′3 (SEQ ID NO:2)) and TK promoter upstream of the luciferase reporter cDNA is transfected with a plasmid constitutively expressing either human glucocorticoid receptor (GR), human mineralocorticoid receptor (MR), or human progesterone receptor (PR) using viral CMV promoter. Cells are transfected in T150 cm flasks in DMEM media with 5% charcoal-stripped Fetal Bovine Serum (FBS). […] In the antagonist mode for the assays, low concentrations of agonist for each respective receptor are added to the media (0.25 nM dexamethasone for GR, 0.3 nM of methyltrienolone for AR, 0.05 nM of promegestone for PR and 0.05 nM aldosterone for MR), and the ability of test compound to antagonize the agonist response is determined. After 24 hours of incubation with test compounds, cells are lysed and luciferase activity is determined using standard techniques.
Data are fitted to a four parameter-fit logistic curve fit to determine EC50 values. […] IC50 values may be determined similarly using antagonist mode assay data. Percent inhibitions may also be determined relative to the response in the presence of agonist alone, as described above.

## CC/C(=C1\c2ccc(Cl)cc2OCc2ncccc21)c1cccc(NS(C)(=O)=O)c1 [Compound (I), (E)-N-{3-[1-(8-Chloro-11H-10-oxa-1-aza-dibenzo[a,d]cyclohepten-5-ylidene)-propyl]-phenyl}-methanesulfonamide]
[1]; oral administration, in words
  inhibition of carrageenan induced paw edema: dose dependently inhibits
  production of interleukin-1-beta (IL-1β): inhibits production
[1]; read-out: ED50, inhibition of carrageenan induced paw weight gain
  ED50: ~1.2 mg/kg
[1]; read-out: ED50, reduction of paw exudate levels of IL-1β
  ED50: ~0.31 mg/kg
[2]
  metabolism when incubated with human hepatocyte cultures: only minor metabolism
[3]; HEK293, partial agonist activity, read-out: maximal efficacy in inducing GR/GRE-mediated gene transcription (transactivation)
  Emax: < 50%
[3]; agonist mode, activating transcription, mean of 3
  EC50: 1.9 nM
[3]; percent efficacy at 10 μM relative to 100 nM dexamethasone, mean of 3
  GR % Eff.: 45.7%
